Results on eleven compounds are retold here after patent US8426408B2, “Pyrimidine inhibitors of kinases” (AbbVie Inc., priority 2009, dated 2013).

What all share (assay type): biochemical
One assay addresses KDR (Homo sapiens, UniProt P35968). Nature of the assay: KDR HTRF in vitro kinase assay. Further details: purified enzyme (His6-KDR 789-1354, MW 63 kD); His6 (N). The following applies: 1 mM ATP; read-out: KDR enzyme inhibition data (Ki). Here is the method:
To determine the activity of the various kinases, a homogenous time-resolved fluorescence (HTRF) in vitro kinase assay was used. (Mathis, G., HTRF® Technology. J Biomol Screen, 1999. 4(6): p. 309-314; Alfred J. Kolb, Paul V. Kaplita, David J. Hayes, Young-Whan Park, Christine Pernell, John S. Major and Gerard Mathis, Drug Discovery Today, 1998, 3, 333-342.)
For example for KDR, 7 ng/well of purified enzyme (His6-KDR 789-1354, MW 63 kD) was mixed with 0.5 μM N-biotinylated substrate (Biotin-Ahx-AEEEYFFLA-amide (SEQ. ID. 1)), various concentrations of inhibitor in reaction buffer (50 mM HEPES, pH 7.1, 10 mM MgCl2, 2 mM MnCl2, 0.1% BSA and 1 mM DTT, 40 L final volume), ATP (1 mM final conc.) in a black 384-well plate. After 60 minutes incubation at room temperature, the reaction was quenched by addition of a buffered EDTA solution (final approximate concentrations: 30 mM EDTA, 0.1% BSA, 0.1% Triton X-100 and 0.24M KF) and a solution of revelation agents (to give 0.084 ng/well streptavidin-XL-665 (Cis-Bio) and 6.5 ng/well antiphsophotyrosine mAb PT66-K Europium kryptate) was added to the reaction mixture. The quenched reaction was allowed to stand at room temperature for 3 hours and was then read in a time-resolved fluorescence detector (InVision, Perkin-Elmer) at 620 nm and 665 nm sequentially with excitation. The ratio between the signal of 620 nm and 665 nm was used in the calculation of the IC50.

Another assay concerns the target T1, Aurora B (Homo sapiens, UniProt Q96GD4).
T1 construct: Active Aurora B enzyme (recombinant residues 1-344)
In words: Aurora B enzyme inhibition (time-resolved fluorescence, histone H3 peptide). The following applies: 1 mM ATP. Here is the method: To determine Aurora B activity of representative compounds of the invention, Active Aurora B enzyme (recombinant residues 1-344) and INCENP (recombinant GST fusion protein (Upstate)) were incubated in wells of a 384 well plate with biotinylated histone H3 peptide residues 1-21 (Upstate), 1 mM ATP, and various concentrations of inhibitors in a HEPES buffer, pH 7.4 containing MgCl2, sodium othrovanadate, and Triton X-100. After 1 hour, the reaction was stopped with EDTA and anti-phospho-histone H3 Europium Cryptate (Cis-Bio) and SA-APC (Phycolink, Prozyme) were added to detect the phosphopeptide. The amount of phosphorylation was determined by the time-resolved fluorescence ratio of signals at 665 nm and 615 nm. The IC50's were calculated by an exponential fit of the inhibition values with the inhibitor concentrations using Assay Explorer software.

The target of a further assay is T2, Aurora A (Homo sapiens, UniProt O14965).
T2 sequence (O14965 1-403): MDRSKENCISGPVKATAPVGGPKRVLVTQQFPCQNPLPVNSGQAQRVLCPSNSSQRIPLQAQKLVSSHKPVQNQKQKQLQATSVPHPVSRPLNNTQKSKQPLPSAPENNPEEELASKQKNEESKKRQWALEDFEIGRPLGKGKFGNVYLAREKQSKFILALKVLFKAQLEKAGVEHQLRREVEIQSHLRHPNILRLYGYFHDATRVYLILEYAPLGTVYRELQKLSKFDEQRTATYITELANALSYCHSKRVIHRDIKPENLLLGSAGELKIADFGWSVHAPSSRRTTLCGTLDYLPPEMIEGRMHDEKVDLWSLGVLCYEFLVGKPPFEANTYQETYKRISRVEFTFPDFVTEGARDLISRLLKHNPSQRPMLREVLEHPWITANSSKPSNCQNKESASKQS
Nature of the assay: Aurora A enzyme inhibition (time-resolved fluorescence, STK substrate-2). As to conditions: 1 mM ATP. Here is the method: To determine Aurora A and C activity of representative compounds of the invention, Active Aurora A or C enzyme was incubated in wells of a 384 well plate with biotinylated STK substrate-2 (Upstate), 1 mM ATP, and various concentrations of inhibitors in a Hepes buffer, pH 7.4 containing MgCl2, sodium othrovanadate, and Triton X-100. After 1 hour, the reaction was stopped with EDTA and anti-phospho-STK antibody Europium Cryptate (Upstate) and SA-XL665 (Upstate) were added to detect the phosphopeptide. The amount of phosphorylation was determined by the time-resolved fluorescence ratio of signals at 665 nm and 615 nm. The IC50s were calculated by an exponential fit of the inhibition values with the inhibitor concentrations using Assay Explorer software.

T1 sequence (Q96GD4 whole entry, the tested form may be a part): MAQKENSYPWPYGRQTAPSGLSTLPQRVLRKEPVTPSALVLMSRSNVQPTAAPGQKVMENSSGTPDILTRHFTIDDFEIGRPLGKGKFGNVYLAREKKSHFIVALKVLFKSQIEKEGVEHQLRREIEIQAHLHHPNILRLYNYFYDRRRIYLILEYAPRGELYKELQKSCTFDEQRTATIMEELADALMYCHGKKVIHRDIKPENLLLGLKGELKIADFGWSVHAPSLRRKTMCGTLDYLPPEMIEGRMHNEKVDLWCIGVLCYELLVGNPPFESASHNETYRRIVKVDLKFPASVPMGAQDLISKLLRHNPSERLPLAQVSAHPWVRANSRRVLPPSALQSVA
T1 sequence (Q9NQS7 826-918 partner limits assumed): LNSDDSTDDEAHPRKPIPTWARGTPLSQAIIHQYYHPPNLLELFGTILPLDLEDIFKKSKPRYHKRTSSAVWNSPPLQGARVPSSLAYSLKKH
KDR, sequence (P35968 789-1354): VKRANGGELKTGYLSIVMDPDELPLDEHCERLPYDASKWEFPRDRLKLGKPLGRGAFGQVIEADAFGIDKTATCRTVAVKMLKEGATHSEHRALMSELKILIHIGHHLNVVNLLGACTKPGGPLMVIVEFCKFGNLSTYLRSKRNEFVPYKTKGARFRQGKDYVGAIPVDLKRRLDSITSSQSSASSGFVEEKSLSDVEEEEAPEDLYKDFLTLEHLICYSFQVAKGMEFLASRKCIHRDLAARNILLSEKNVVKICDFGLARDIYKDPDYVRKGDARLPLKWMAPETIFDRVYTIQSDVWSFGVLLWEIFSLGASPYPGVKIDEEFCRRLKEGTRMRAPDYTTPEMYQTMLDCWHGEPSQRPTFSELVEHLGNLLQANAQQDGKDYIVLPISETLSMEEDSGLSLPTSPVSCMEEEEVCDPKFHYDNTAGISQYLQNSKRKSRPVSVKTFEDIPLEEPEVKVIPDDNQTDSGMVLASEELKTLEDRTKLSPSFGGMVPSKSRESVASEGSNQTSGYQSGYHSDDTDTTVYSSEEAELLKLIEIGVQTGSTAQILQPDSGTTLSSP

In the case of `C[C@@H](O)Cn1cc(Nc2ncc(C(F)(F)F)c(N[C@H]3[C@@H](C(N)=O)[C@@H]4C=C[C@H]3C4)n2)cn1` [Example 69, (1S,2S,3R,4R)-3-{[2-({1-[(2R)-2-hydroxypropyl]-1H-pyrazol-4-yl}amino)-5-(trifluoromethyl)pyrimidin-4-yl]amino}bicyclo[2.2.1]hept-5-ene-2-carboxamide], the inhibitory constant (Ki) on KDR, at Aurora B and at Aurora A was below 100 nM each time.

Regarding `CNC(=O)[C@@H]1[C@H](Nc2nc(Nc3cnn(C)c3)ncc2Cl)[C@H]2C=C[C@@H]1C2` (racemic) [Example 50, (1S,2S,3R,4R)-3-({5-chloro-2-[(1-methyl-1H-pyrazol-4-yl)amino]pyrimidin-4-yl}amino)-N-methylbicyclo[2.2.1]hept-5-ene-2-carboxamide and (1R,2R,3S,4S)-3-({5-chloro-2-[(1-methyl-1H-pyrazol-4-yl)amino]pyrimidin-4-yl}amino)-N-methylbicyclo[2.2.1]hept-5-ene-2-carboxamide], the inhibitory constant (Ki) on KDR, on Aurora B and at Aurora A was below 100 nM throughout.

As for “isopropyl{4-[(4-{[(1R,2R,3S,4S)-3-(aminocarbonyl)bicyclo[2.2.1]hept-5-ene-2-yl]amino}-5-fluoropyrimidin-2-yl)amino]-1H-pyrazol-1-yl}acetate and isopropyl{4-[(4-{[(1S,2S,3R,4R)-3-(aminocarbonyl)bicyclo[2.2.1]hept-5-ene-2-yl]amino}-5-fluoropyrimidin-2-yl)amino]-1H-pyrazol-1-yl}acetate [Example 6]”, the Ki on KDR, at Aurora B and at Aurora A was 100 to 1000 nM in each case.

On to `CNC(=O)[C@@H]1[C@H](Nc2nc(Nc3cnn(C)c3)ncc2C(F)(F)F)[C@H]2C=C[C@@H]1C2.CNC(=O)[C@H]1[C@@H](Nc2nc(Nc3cnn(C)c3)ncc2C(F)(F)F)[C@@H]2C=C[C@H]1C2` (mixture of isomers) [Example 47, (1S,2S,3R,4R)—N-methyl-3-{[2-[(1-methyl-1H-pyrazol-4-yl)amino]-5-(trifluoromethyl)pyrimidin-4-yl]amino}bicyclo[2.2.1]hept-5-ene-2-carboxamide and (1R,2R,3S,4S)—N-methyl-3-{[2-[(1-methyl-1H-pyrazol-4-yl)amino]-5-(trifluoromethyl)pyrimidin-4-yl]amino}bicyclo[2.2.1]hept-5-ene-2-carboxamide], for which the inhibition constant (Ki) at KDR, at Aurora B and on Aurora A was below 100 nM throughout.

For `CCOC(=O)[C@@H]1[C@H](Nc2nc(Nc3cnn(C)c3)ncc2F)[C@H]2C=C[C@@H]1C2.CCOC(=O)[C@H]1[C@@H](Nc2nc(Nc3cnn(C)c3)ncc2F)[C@@H]2C=C[C@H]1C2` (mixture of isomers) [Example 7, ethyl(1S,2S,3R,4R)-3-({5-fluoro-2-[(1-methyl-1H-pyrazol-4-yl)amino]pyrimidin-4-yl}amino)bicyclo[2.2.1]hept-5-ene-2-carboxylate and ethyl(1R,2R,3S,4S)-3-({5-fluoro-2-[(1-methyl-1H-pyrazol-4-yl)amino]pyrimidin-4-yl}amino)bicyclo[2.2.1]hept-5-ene-2-carboxylate], the figures for the inhibition constant Ki at KDR, at Aurora B and at Aurora A were above 5000 nM, 100 to 1000 nM and above 5000 nM, respectively.

With `CCn1cc(Nc2ncc(OC)c(NC3C4C=CC(C4)C3C(N)=O)n2)cn1` (mixture of isomers) [Example 53, (1S,2S,3R,4R)-3-({2-[(1-ethyl-1H-pyrazol-4-yl)amino]-5-methoxypyrimidin-4-yl}amino)bicyclo[2.2.1]hept-5-ene-2-carboxamide and (1R,2R,3S,4S)-3-({2-[(1-ethyl-1H-pyrazol-4-yl)amino]-5-methoxypyrimidin-4-yl}amino)bicyclo[2.2.1]hept-5-ene-2-carboxamide], the Ki on KDR, on Aurora B and at Aurora A was below 100 nM each time.

For the compound `NC(=O)[C@@H]1[C@H](Nc2nc(Nc3cnn(C4CCNCC4)c3)ncc2Cl)[C@H]2C=C[C@@H]1C2` [Example 82, (1S,2S,3R,4R)-3-({5-chloro-2-[(1-piperidin-4-yl-1H-pyrazol-4-yl)amino]pyrimidin-4-yl}amino)bicyclo[2.2.1]hept-5-ene-2-carboxamide], the inhibition constant (Ki) on KDR, on Aurora B and on Aurora A was below 100 nM in each case.

In the case of `NC(=O)[C@@H]1[C@H](Nc2nc(Nc3cnn(CCN4CCCCC4)c3)ncc2Br)[C@H]2C=C[C@@H]1C2.NC(=O)[C@H]1[C@@H](Nc2nc(Nc3cnn(CCN4CCCCC4)c3)ncc2Br)[C@@H]2C=C[C@H]1C2` (mixture of isomers) [Example 38, (1S,2S,3R,4R)-3-[(5-bromo-2-{[1-(2-piperidin-1-ylethyl)-1H-pyrazol-4-yl]amino}pyrimidin-4-yl)amino]bicyclo[2.2.1]hept-5-ene-2-carboxamide and (1R,2R,3S,4S)-3-[(5-bromo-2-{[1-(2-piperidin-1-ylethyl)-1H-pyrazol-4-yl]amino}pyrimidin-4-yl)amino]bicyclo[2.2.1]hept-5-ene-2-carboxamide], the Ki at KDR, at Aurora B and on Aurora A was below 100 nM each time.

On to `C[C@@H](O)Cn1cc(Nc2ncc(F)c(N[C@@H]3[C@H]4CC[C@H](C4)[C@@H]3C(N)=O)n2)cn1.C[C@@H](O)Cn1cc(Nc2ncc(F)c(N[C@H]3[C@@H]4CC[C@@H](C4)[C@H]3C(N)=O)n2)cn1` (mixture of isomers) [Example 16, (1S,2R,3S,4R)-3-{[5-fluoro-2-({1-[(2R)-2-hydroxypropyl]-1H-pyrazol-4-yl}amino)pyrimidin-4-yl]amino}bicyclo[2.2.1]heptane-2-carboxamide and (1R,2S,3R,4S)-3-{[5-fluoro-2-({1-[(2R)-2-hydroxypropyl]-1H-pyrazol-4-yl}amino)pyrimidin-4-yl]amino}bicyclo[2.2.1]heptane-2-carboxamide], for which the inhibitory constant (Ki) (in general, a dissociation constant, usually derived from enzyme kinetics or from competition with a known ligand) lay within 1000 to 5000 nM at KDR, 100 to 1000 nM at Aurora B and 100 to 1000 nM on Aurora A.

As to `CCn1cc(Nc2ncc(Br)c(N[C@H]3[C@@H](C(N)=O)[C@@H]4C=C[C@H]3C4)n2)cn1` [Example 79, (1S,2S,3R,4R)-3-({5-bromo-2-[(1-ethyl-1H-pyrazol-4-yl)amino]pyrimidin-4-yl}amino)bicyclo[2.2.1]hept-5-ene-2-carboxamide], the Ki at KDR, at Aurora B and at Aurora A was below 100 nM in each case.

Consider `CC(O)Cn1cc(Nc2ncc(F)c(NC3C4C=CC(C4)C3C(N)=O)n2)cn1` (mixture of isomers) [Example 15, (1R,2R,3S,4S)-3-{[5-fluoro-2-({1-[(2R)-2-hydroxypropyl]-1H-pyrazol-4-yl}amino)pyrimidin-4-yl]amino}bicyclo[2.2.1]hept-5-ene-2-carboxamide and (1S,2S,3R,4R)-3-{[5-fluoro-2-({1-[(2R)-2-hydroxypropyl]-1H-pyrazol-4-yl}amino)pyrimidin-4-yl]amino}bicyclo[2.2.1]hept-5-ene-2-carboxamide], for which the Ki is 1000 to 5000 nM at KDR, below 100 nM on Aurora B and 100 to 1000 nM on Aurora A.
